Results reported in PMC11322497 (Frontiers in Pharmacology, 2024).
Like-named read-outs stand apart in the source and are kept apart here.

Assays:
[1] = tested on: high fat diet (HFD) rabbit model of metabolic-associated steatohepatitis (MASH); experiment: HFD rabbit study, acute 5-day treatment at week 12: clinical and biochemical data, tolerability; assay type: in vivo; details: for ALT / AST / Glycaemia / Liver Weight / MAP / OGTT (iAUC) / Plasma Cholesterol / Plasma Triglycerides: 30 mg/kg p.o. q.d. 5 days, mean ± SD, n = 3
Method: A total number of 64 male New Zealand White rabbits (Charles River, Calco, Lecco, Italy), weighing about 3 kg, were individually caged under standard conditions in a temperature- and humidity-controlled room on a 12 h light/dark cycle. Water and food were unrestricted throughout the study. Experimental procedures were conducted using the facilities of the Department of Biomedical Experimental and Clinical Sciences “Mario Serio” and Department of Experimental and Clinical Medicine, and those of CE.S.A.L. (Centro Stabulazione degli Animali da Laboratorio), and NEUROFARBA Department, University of Florence, Italy.
The dose employed was established based on pilot pharmacokinetics studies in rabbits performed historically in naïve rabbits (data not shown). This first part of the study allowed the determination of the therapeutic benefits of selvigaltin following acute treatment, thus validating the model for further investigation of this mechanism in a chronic treatment protocol.
After 1 week of standard diet, animals (n = 12) were randomly assigned to the following groups (Table 1A): • Control rabbits continued to receive a regular diet (RD) for 12 weeks and were treated for 5 days (days 1–5, p.o.), during the last week before culling, with either vehicle; RD+1W Veh group] or GB1211 (30 mg/kg; RD + 1W 30 mg group); • Rabbits received a high fat diet (HFD) for 12 weeks (RD implemented with 0.5% cholesterol and 2.5% vegetable fat) and were treated for 5 days (days 1–5, p.o.), during the last week before culling, with either vehicle (HFD + 1W Veh group) or GB1211 (30 mg/kg; HFD + 1W 30 mg group).
The oral glucose tolerance test (OGTT) was performed in accordance with the published method ([Filippi et al., 2009]). Briefly, after an overnight fast, a 50% glucose solution was orally administered to the animals at a dose of 1.5 g/kg. Blood samples were collected before and 15, 30, and 120 min after glucose loading. The incremental area under the curve (iAUC) was calculated by using GraphPad Prism (GraphPad Software, San Diego, CA). Blood samples for analyses were obtained from the marginal ear vein at week 8 or 12, in all groups. All blood samples were collected in standard conditions, before 10 a.m. after an overnight fasting. The blood was immediately centrifuged at 2,000 g for 20 min at 4°C and collected plasma/serum stored at −80°C until assayed. Plasma glucose, total cholesterol, triglycerides, transaminases (AST and ALT), and gamma-glutamyl transferase levels were measured using an automated system (Cobas 8000, Roche Diagnostics International AG, Rotkreuz, Switzerland). Serum alkaline phosphatase, albumin and total bilirubin levels were measured at IDEXX Laboratories (Kornwestheim, Germany), using an automated system (AU480, Beckman-Coulter, Brea, CA) with kinetic and photometric colour tests as per the following methods: alkaline phosphatase - alkaline buffer solution [2-amino-2-methylpropanol (AMP) in conjunction with p-nitrophenyl phosphate (pNPP)], according to the recommendation of the International Federation for Clinical Chemistry; albumin - the reaction of bromocresol green with albumin produces a colour complex, the absorption of which is measured dichromatically ([Doumas et al., 1971]); total bilirubin - a stabilized diazonium salt, 3,5-dichlorophenyldiazonium tetrafluoroborate (DPD), reacts with bilirubin to formazobilirubin, which absorbs at 570 nm ([Tolman and Rej, 1999]).
Mean arterial blood pressure (MAP) was measured by using a polyethylene catheter inserted into a femoral artery at week 8 or 12, after ketamine (10 mg/kg i.v.) and sodium thiopental (50 mg/kg i.v.) sedation.

[2] = molecular target: T1, rabbit galectin-3 (Oryctolagus cuniculus, UniProt P47845); experiment: Galectins fluorescence polarization binding assay
T1 construct: made in house
T1 sequence (P47845 whole entry): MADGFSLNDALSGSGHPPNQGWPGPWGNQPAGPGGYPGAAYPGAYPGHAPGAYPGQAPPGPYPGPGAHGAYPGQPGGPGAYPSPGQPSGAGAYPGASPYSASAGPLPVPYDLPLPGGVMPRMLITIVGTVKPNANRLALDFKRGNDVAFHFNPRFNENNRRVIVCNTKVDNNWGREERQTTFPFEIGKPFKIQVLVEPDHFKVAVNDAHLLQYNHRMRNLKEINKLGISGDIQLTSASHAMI
Method: Briefly, FP was measured from above in 96-well microtiter plates (black polystyrene; Costar, Corning, NY) using a POLARStar® instrument (BMG Labtech, Ortenberg, Germany). The final sample volume in each well was 200 μL. For inhibition assays, 100 μL of galectin and probe at fixed concentration was mixed with 100 μL of inhibitor solution and FP was measured as described above. Control wells containing only fluorescent probe or fluorescein were included.
All dilutions and measurements were done in PBS with plates incubated at room temperature for 1 h.

Structure (SMILES): OC[C@H]1O[C@H](Sc2cncc(Br)c2)[C@H](O)[C@@H](n2cc(-c3cc(F)c(F)c(F)c3)nn2)[C@H]1O [selvigaltin]
- tolerability ([1]; 30 mg/kg/day p.o., 5 days): well tolerated
- ALT ([1]; HFD rabbits): 97.33 ± 54.99 U/L
- AST ([1]; HFD rabbits): 231.67 ± 22.30 U/L
- Glycaemia ([1]; HFD rabbits): 1.60 ± 0.14 gr/L
- Liver Weight ([1]; HFD rabbits): 3.94 ± 0.55 % of BW
- MAP ([1]; HFD rabbits): 130.83 ± 20.36 mmHg
- OGTT (iAUC) ([1]; HFD rabbits): 220.33 ± 8.63
- Plasma Cholesterol ([1]; HFD rabbits): 2064.00 ± 268.00 mg/dL
- Plasma Triglycerides ([1]; HFD rabbits): 88.00 ± 42.14 mg/dL
- ALT ([1]; RD rabbits): 36.33 ± 25.11 U/L
- AST ([1]; RD rabbits): 29.33 ± 5.86 U/L
- Glycaemia ([1]; RD rabbits): 1.12 ± 0.17 gr/L
- Liver Weight ([1]; RD rabbits): 2.40 ± 0.33 % of BW
- MAP ([1]; RD rabbits): 88.75 ± 14.09 mmHg
- OGTT (iAUC) ([1]; RD rabbits): 165.90 ± 11.12
- Plasma Cholesterol ([1]; RD rabbits): 21.67 ± 3.51 mg/dL
- Plasma Triglycerides ([1]; RD rabbits): 56.00 ± 21.28 mg/dL
- Kd ([2]; equivalent to KD of 12 nM, read-out: rabbit galectin-3 KD, equivalent concentration (converted)): 12 nM
- Kd ([2]; fluorescence polarization, mean ± SD, n = 3, read-out: KD rabbit galectin-3): 12 nM
